Test systems include U251 CNS; CCRF-CEM leukemia; M14 melanoma; OVCAR-8 ovarian; HCT-116 colon; IGROV1 ovarian; DU-145 prostate; COLO 205 colon; SF-295 CNS; SN12C renal.
Common to all, as to assay: NCI anticancer screen, dose series, 48 h

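Test compounds were applied to cells in 96-well plates for 48 hours at 5 doses. Here, GI50 denotes the concentration required for 50% inhibition of growth. TGI: total growth inhibition.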

In the case of `NC(=O)c1c(NC(=O)c2ccccn2)sc2c1CCC(=O)C2`, the GI50 was 2.14 µM with U251 CNS; 2.02 µM in the assay with CCRF-CEM leukemia; 3.88 µM in the assay on M14 melanoma; 3.45 µM with OVCAR-8 ovarian; 3.5 µM with HCT-116 colon; 3.24 µM with IGROV1 ovarian. Besides, in the assay on DU-145 prostate, the GI50 is more than 100 µM. The TGI in the assay with U251 CNS, in the assay on CCRF-CEM leukemia, in the assay on M14 melanoma, in the assay on OVCAR-8 ovarian, in the assay on HCT-116 colon and in the assay on IGROV1 ovarian was more than 100 µM throughout. The TGI in the assay with DU-145 prostate is more than 100 µM.
Regarding `COc1nc(C#CC2(O)CCCCC2)nc(OC)n1`, the TGI was determined as 26.4 µM in the assay on U251 CNS; 48.6 µM with CCRF-CEM leukemia; 45.5 µM in the assay on COLO 205 colon; 38.3 µM with M14 melanoma; 60.4 µM with SF-295 CNS; 26.6 µM with SN12C renal. The TGI with OVCAR-8 ovarian is 39.8 µM; with HCT-116 colon, more than 100 µM; with IGROV1 ovarian, 23.1 µM; in the assay with DU-145 prostate, 19.6 µM.
`O=C(OCN1C(=O)C2C3C=CC(C2C1=O)C1C2C(=O)N(COC(=O)C4CCCN4)C(=O)C2C31)C1CCCN1` (stereo not drawn): the TGI was more than 67.5 µM in the assay with U251 CNS; 53.5 µM in the assay on CCRF-CEM leukemia; more than 100 µM in the assay on COLO 205 colon; more than 100 µM in the assay with M14 melanoma; more than 100 µM in the assay on SF-295 CNS; more than 100 µM with SN12C renal. The TGI is 67.5 µM in the assay with OVCAR-8 ovarian, more than 53.7 µM in the assay with HCT-116 colon and more than 100 µM with IGROV1 ovarian.
Turning to `O=C(O)C1C2CCC(O2)C1C(=O)Nc1cccc2cccnc12` (stereo not drawn), the TGI in the assay with U251 CNS, in the assay with M14 melanoma, with SF-295 CNS, in the assay with SN12C renal, in the assay on HCT-116 colon and in the assay with IGROV1 ovarian was more than 100 µM each time. In addition, in the assay on DU-145 prostate, the TGI is more than 100 µM.
As for `COc1ccc2c(c1)[nH]c1c(/C=C/c3ccccc3)nccc12`, the TGI in the assay with U251 CNS is 38.9 µM; in the assay with CCRF-CEM leukemia, more than 100 µM; with COLO 205 colon, 19.9 µM; with M14 melanoma it was 35.3 µM; in the assay on SF-295 CNS, 24.2 µM; in the assay on SN12C renal it was 30.2 µM. Further, the TGI was 42.2 µM in the assay with OVCAR-8 ovarian, 30.4 µM with HCT-116 colon, more than 100 µM with IGROV1 ovarian and 51.8 µM in the assay on DU-145 prostate.
Regarding `CN(C)CC(CC1=C(CC(CN(C)C)N(C)C)CCC1)N(C)C` (stereo not drawn), the TGI with U251 CNS, in the assay with CCRF-CEM leukemia, in the assay on COLO 205 colon, with SF-295 CNS, in the assay with SN12C renal and with OVCAR-8 ovarian was more than 100 µM each time. The TGI in the assay with HCT-116 colon and in the assay on IGROV1 ovarian was more than 100 µM in each case.
Take `CC1=CC(=O)c2ccccc2C1=O`: the TGI in the assay with U251 CNS came out at 26.4 µM; in the assay on CCRF-CEM leukemia, 5.76 µM; in the assay on COLO 205 colon it was 31.8 µM; in the assay on M14 melanoma it was 15.8 µM; in the assay on SF-295 CNS it was 30.3 µM; with SN12C renal, 25 µM. For the same molecule, the TGI in the assay with OVCAR-8 ovarian is 22.7 µM; with HCT-116 colon, 5.33 µM; in the assay on IGROV1 ovarian it was 29.2 µM; in the assay on DU-145 prostate, 29.4 µM.
`Nc1nc(SCCc2ccccc2)nc2nc3c(c(-c4ccccc4)c12)CCCC3`: the TGI with U251 CNS, with CCRF-CEM leukemia, in the assay on COLO 205 colon, with M14 melanoma, with SF-295 CNS and with SN12C renal was more than 100 µM each time. Further, the TGI in the assay with OVCAR-8 ovarian, with IGROV1 ovarian and in the assay with DU-145 prostate was more than 100 µM each time.
Regarding `COc1cccc2c1Cc1cc(-c3ccccc3)[n+](C)n1-2`, the TGI in the assay on U251 CNS is more than 100 µM; with CCRF-CEM leukemia, 9.69 µM; with COLO 205 colon, 7.46 µM; with M14 melanoma, 24.9 µM; in the assay with SF-295 CNS, more than 100 µM; in the assay with SN12C renal it was 61.7 µM. Besides, the TGI in the assay on OVCAR-8 ovarian is more than 100 µM; with HCT-116 colon, 15.8 µM; in the assay with IGROV1 ovarian, more than 100 µM; in the assay on DU-145 prostate, more than 100 µM.
Consider `C[C@H](CCC(=O)O)[C@H]1CC[C@@]2(C)[C@@H]3C(=O)C[C@H]4C(C)(C)[C@@H](O)CC[C@]4(C)[C@H]3C(=O)C[C@]12C`, for which the TGI with U251 CNS, in the assay with CCRF-CEM leukemia, in the assay with COLO 205 colon, with M14 melanoma, in the assay on SF-295 CNS and with SN12C renal was more than 100 µM in each case. The TGI with OVCAR-8 ovarian, in the assay with HCT-116 colon, in the assay with IGROV1 ovarian and in the assay on DU-145 prostate was more than 100 µM each time.
On to `CCn1c(-c2ccc(N=NNc3ccc(-c4n[nH]c(=S)n4CC)cc3)cc2)n[nH]c1=S`, for which the TGI with CCRF-CEM leukemia is 61.6 µM; in the assay on M14 melanoma, 8.2 µM; with SF-295 CNS, 7.1 µM; in the assay on SN12C renal, more than 100 µM; with OVCAR-8 ovarian, 6.96 µM; in the assay on HCT-116 colon it was more than 100 µM. In addition, in the assay on DU-145 prostate, the TGI was determined as 8.17 µM.
`O=c1cccccc1[O-].O=c1cccccc1[O-].[O]=[U+2]=[O]`: the values for the GI50 with U251 CNS and in the assay on SN12C renal were 25.9 µM and 27.2 µM, respectively. In addition, the TGI came out at 72 µM with U251 CNS; 60.8 µM with COLO 205 colon; 73.2 µM with M14 melanoma; 41.5 µM with SF-295 CNS; 63.2 µM in the assay with SN12C renal; 99.6 µM in the assay with OVCAR-8 ovarian. Also, the TGI with HCT-116 colon turned out to be 98.4 µM; with IGROV1 ovarian it was 50.9 µM.
Regarding `Nc1ccccc1S(=O)(=O)c1ccccc1`, the TGI in the assay on U251 CNS, in the assay with CCRF-CEM leukemia, in the assay with COLO 205 colon, with M14 melanoma, in the assay on SF-295 CNS and in the assay on SN12C renal was more than 100 µM throughout. Moreover, the TGI with OVCAR-8 ovarian, with HCT-116 colon and with IGROV1 ovarian was more than 100 µM throughout.
On to `O=C(/C=C/c1ccc(O)c(-c2cc(C(=O)/C=C/c3ccc(O)cc3)c(O)cc2O)c1)c1ccc(O)cc1O`, for which the TGI in the assay with U251 CNS was more than 50 µM; in the assay on CCRF-CEM leukemia, 37.3 µM; with COLO 205 colon it was 24 µM; with M14 melanoma, more than 50 µM; with SF-295 CNS, more than 50 µM; in the assay with SN12C renal it was more than 50 µM. Also, the TGI in the assay on OVCAR-8 ovarian was 24.7 µM; in the assay on HCT-116 colon, 23.7 µM; in the assay on IGROV1 ovarian it was more than 50 µM; with DU-145 prostate, more than 50 µM.
